These results are taken from patent US20200306283A1, “CANCER TREATMENT AND METASTASIS INHIBITION USING AN ANTI-CANCER STEM CELL AGENT IN COMBINATION WITH A NEU1 SIALIDASE INHIBITOR OR A CYTOKINE INHIBITOR AFTER PRIMARY CANCER TREATMENT” (priority 2016, published 2020).

The test system of assay [1] is xenograft tumors of PANC-1 cells. The assay can be described thus: Fluorescence immunohistochemistry of E-cadherin and N-cadherin in PANC-1 xenograft tumors (FIG. 24). In kind it is in vivo. The settings on record: immunocompromised mice. On the procedure:
Paraffin-embedded tumor sections (5 μm) on glass slides were processed from immunohistochemistry using conjugated E-cadherin and N-cadherin antibodies (see A of FIG. 24). Background control (CTL) sections were prepared without the antibodies. Images are representative of at least five fields of view from two tumor sections. (B). Each bar represents the mean (±standard error of the mean) corrected density of tumor staining. Abbrev.: C=cohort; M=mouse number. E- and N-cadherin expression in paraffin-embedded xenograft tumors of PANC-1 cells in immunocompromised mice using conjugated E- and N-cadherin antibodies was detected by fluorescence immunohistochemistry. […] Images are representative of at least five fields of view from two tumor sections, and each bar represents the mean±standard error of the mean corrected density of tumor staining.

In assay [2] the test system is enriched circulating tumour cells from a patient with colorectal cancer. Description: Cultured enriched CTCs from a colorectal cancer patient treated with IL-6, IL-8 or PDGFBB (EpCAM, CD133, Lgr5 flow cytometry). In kind it is cell-based, human. The text has this: A blood sample was collected from a patient with colorectal cancer six days after surgery. Blood samples were enriched for CTCs using RosetteSep CD 56 kit according to standard protocol. Prior to cell culture, cells were stained with the following antibody cocktail: EpCAM A488, CD133PE, CD 45 PerCP Cy5.5, and Lgr5-PE-Vio770. Cells were either cultured in low attachment well plates without cytokines (control cells) or with three different cytokines (IL-6, IL-8 or PDGFBB).
Flow cytometry data was analysed using IDEAS software. Double events, out of focus events, CD45PercPCy5.5 positive cells, dead cells and non-nucleated events were eliminated from the fluorescence analysis of the cell population. Hoescht 33258 dye was used to stain nuclei of enriched CTCs. All experiments were stained with a fixable live/dead dye eFluor 506 to exclude dead cells.

A further assay has as its system HCT-15 cells. Description: Cell subpopulations (CD44/CD24) in HCT-15 cell line after cytokine exposure, imaging flow cytometry. The format is cell-based. Further details: unit not given here. The settings on record: HCT-15 cells after exposure to cytokines singly or in pairs. On the procedure: Two authenticated colorectal carcinoma cell lines, HCT-15 and SW-620, were used to test the effect of different cytokine and cytokine cocktails, including IL-6, HGF, PGE-2, TGF-beta and MMP-9 alone or in a cocktail, on cell proliferation, EMT and cancer stem cell populations.
In order to evaluate stem cell populations, cells were synchronized by serum starvation for 72 hours before seeding in 24-well ultra low attachment plates at a density of 200,000 cells/well. Cells were then detached using trypsin EDTA and washed twice with PBS (without Calcium or Magnesium). A cell proliferation dye, eFluor 450 was used to label cells. Cells were grown with DMEM with high glucose and 2 mM Gluatmine without FBS in the presence of selected cytokines and or cytokine cocktails over a period of 72 hrs.
Cells that were grown in 5% serum were stained with the following antibody cocktails: CD24FITC, CD44PE and CD24FITC, CD133PE. Cells were also stained with a fixable live/dead efluor dye 506 to exclude dead cells. In parallel, cells were grown in the presence of 5% serum to evaluate CSC markers.
(§1) Cells were fixed in 1% Paraformaldehyde for 15 minutes at room temperature and run on Flowsight using 2 lasers (488 nm at 60 mW and 405 nm at 30 mW). For cell lines, 100,000 events were collected whilst for enriched CTCs all events were collected until the sample finished.
Flow cytometry data was analysed using IDEAS software. Double events, out of focus events, CD45PercPCy5.5 positive cells (in case of enriched CTCs), dead cells and non-nucleated events were eliminated from the fluorescence analysis of the cell population. FIG. 2 depicts scatterplots of flow cytometry experiments showing the enriched CTCs stained with an antibody containing CD44 after treatment with various cytokines and cytokine cocktails. Hoescht 33258 dye was used to stain nuclei in the case of the HCT-15 cell line and enriched CTCs. All experiments were stained with a fixable live/dead dye eFluor 506 to exclude dead cells.
To evaluate which cocktail combinations were most likely involved in cell proliferation of presumed quiescent stem cells or de-differentiated stem cell-like cells, four cytokines, IL-6, HGF, PGE-2 and TGF-beta were added singly or in pairs to HCT-15 cells. Results of combinations that influenced cell proliferation of HCT-15 cells in culture are presented. […] FIG. 4 depicts cell proliferation of subpopulations in the HCT-15 cell line after exposure to various cytokines and cytokine cocktails.
A general note: In flow cytometry, cells or beads pass a laser one at a time.

Assay [3] concerns enriched circulating tumour cells from a patient with metastatic prostate cancer. Description: Cell proliferation / cancer stem cell markers (EpCAM, CD44, CD133) in enriched CTCs cultured with cytokine cocktails. The format is cell-based, human. On the procedure: as §1
Flow cytometry data was analysed using IDEAS software. Double events, out of focus events, CD45PercPCy5.5 positive cells (in case of enriched CTCs), dead cells and non-nucleated events were eliminated from the fluorescence analysis of the cell population. FIG. 2 depicts scatterplots of flow cytometry experiments showing the enriched CTCs stained with an antibody containing CD44 after treatment with various cytokines and cytokine cocktails.
In order to determine if selected cytokines influence cell proliferation of circulating tumour cells (CTCs), whole blood was collected from a patient with metastatic prostate cancer. Circulating tumour cells were enriched from whole blood using RosetteSep CTC Enrichment cocktail. Briefly, samples of whole blood were incubated with RosetteSep (anti CD 56 for 20 minutes at room temperature). Phosphate buffered saline containing 2% Fetal Bovine Serum was added to the samples and layered on a Ficoll Paque gradient. After centrifugation, the supernatant which contained CTCs was washed twice with PBS containing 2% FBS. Equal volumes of the cell suspension were seeded into a 24-well ultra-low attachment polystyrene plate. […] FIG. 3 depicts scatterplots of flow cytometry experiments enriched CTCs stained with an antibody containing CD133 after treatment with various cytokines and cytokine cocktails.
FIG. 6 depicts cell proliferation of subpopulations in cultured CTCs after exposure to various cytokines and cytokine cocktails. Cells were stained using an antibody containing CD44 PE.
Cells were stained using an antibody containing CD133 PE.

The test system of the next assay is SW-620 cells. The assay can be described thus: SW-620 cells treated with cytokines with or without Irinotecan, flow cytometry for stem cell markers and apoptosis. The format is cell-based, human. To be noted: SW-620, cytokines 24 hours then 2 μM Irinotecan 36 hours; zero in non-treated control cells. Here is the method:
SW-620 cells, a human colorectal adenocarcinoma cell line, were treated with cytokines alone or in combination including IL-6, TGF-beta, HGF, PGE-2, IL-6+PGE-2 and TGF-beta+HGF for 24 hours and compared to untreated SW-620 cells as control. Some treated and untreated SW-620 cells were then exposed to 2 μM Irinotecan for 36 hours at which point cells were harvested for flow cytometry to assess for stem cell markers and markers of apoptosis. The percentage of CD44+CD133− cells following treatment with various cytokine and cytokine cocktails is depicted in FIG. 10. Compared to non-cytokine treated cells, combinations with IL-6+PGE-2, and TGF-beta+HGF increased the number and percentage of cells that were CD44+CD133− as shown in FIG. 10 (stem cells). FIG. 11 depicts the percentage of CD44+CD133− cells following treatment with various cytokines and Irinotecan. […]
Additionally, the percentage of CD44-CD133+ cells following treatment with various cytokines and cytokines cocktails was determined as depicted in FIG. 16. The percentage of CD44-CD133+ cells following treatment with various cytokines and Irinotecan was measured as depicted in FIG. 17. The percentage of CD44-CD133+ cells following treatment with various cytokine cocktails and Irinotecan was measured as depicted in FIG. 18. […]

The mark [4] stands for this setting: cultured CTCs from colorectal cancer patient.
Where [5] appears, read: cell culture period 8 days, CD44PE antibody cocktail.

As for `Nc1ccn([C@@H]2O[C@H](CO)[C@@H](O)C2(F)F)c(=O)n1` [Gem, gemcitabine], in assay [1], the “N-cadherin expression in tumor tissue” value is recorded as “remained consistent”.
“IL6: cytokine Interleukin 6 added to cancer cells in culture”: in assay [2] (setting [4]), the “EpCAM + CD133+ cell subpopulation” value was 0.1 percentages of gated subpopulations, the “EpCAM + CD133− cell subpopulation” value is reported as 2.98 percentages of gated subpopulations, the “EpCAM − CD133+ cell subpopulation” value is on record as 0.12 percentages of gated subpopulations and the “EpCAM − CD133− cell subpopulation” value was 90.5 percentages of gated subpopulations. Besides, in assay [2] (cultured CTCs, colorectal cancer patient, 0.05% before culture, 2% control, listed as IL-6), the “EpCAM+CD133− subpopulation (cancer stem cell fraction)” value was “significantly increased”. Besides, in the assay on HCT-15 cells, the “CD24 + CD44− cell subpopulation” value stood at 49.1, the “CD44 + CD24+ cell subpopulation” value is 5.63, the “CD44 + CD24− cell subpopulation” value came out at 1.35 and the “CD44 − CD24− cell subpopulation” value came out at 43.2. In assay [3] (8 days culture, CD44PE antibody cocktail), the “percentage of cells positive for both EpCAM and CD44” value is “highest”. Moreover, in assay [3] (8 days culture, no serum, CD44PE antibody cocktail), the “EpCAM-CD44+ cell sub-population” value is 6.14 % gated. Moreover, in assay [3] (CD133 PE antibody cocktail), the “EpCAM + CD133+ cell subpopulation” value is 23.5 percentages of gated subpopulations, the “EpCAM + CD133− cell subpopulation” value is given as 0 percentages of gated subpopulations, the “EpCAM − CD133+ cell subpopulation” value is 74.7 percentages of gated subpopulations and the “EpCAM − CD133− cell subpopulation” value is 1.46 percentages of gated subpopulations. Besides, in assay [3] (setting [5]), the “EpCAM + CD44+ cell subpopulation” value was 35.6 percentage of gated cells, the “EpCAM + CD44− cell subpopulation” value is 2.66 percentage of gated cells, the “EpCAM − CD44+ cell subpopulation” value is listed as 6.14 percentage of gated cells and the “EpCAM − CD44− cell subpopulation” value is listed as 55 percentage of gated cells. Besides, in the assay on SW-620 cells, the “percentage of CD44+CD133− stem cells” value was “enriched”.
